Laboratory results: patent US20260217698A1 (BEYANG THERAPEUTICS CO., LTD., priority 2022, published 2026)
Converted amounts (≈) assume the structure as drawn.

Assays:
[1] = biological target: VEGFR2 (Homo sapiens, UniProt P35968); test: Kinase inhibition, Mobility Shift Assay/IMAP, VEGFR2; assay type: biochemical; design: purchased Carna 08-191
Summary of the method: (§1)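 Substrate conversion (phosphorylated vs non-phosphorylated) read by mobility shift on Caliper EZ Reader II and converted to % inhibition relative to no-enzyme and DMSO controls. IC50 fitted from % inhibition versus log compound concentration.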

[2] = Solubility test in buffer, LC-MS; assay type: physicochemical; conditions: aqueous buffer, thermodynamic from solid, room temperature, shaking 8 h, pH not given (method: pH 2.0, 6.5, 7.4)
Experimental: Accurately weigh 3 portions of about 2 mg of the compound, and add appropriate volumes of buffers with the pHs of 2.0, 6.5, and 7.4 respectively to obtain a solution with a concentration of 2 mg/mL. After sonication for 10 min, fix them on a shaker and shaking for 8 h at room temperature. After shaking, sonicate for 10 min and centrifuge for 15 min at 13,000 rpm. Pipette 0.1 mL of supernatant into a new tube, shake and rinse it with 5 mL, and discard the liquid. Transfer 0.5 mL of the supernatant again to a new tube, centrifuge it for 15 min at 13,000 rpm, then collect the supernatant (if necessary, dilute with water) and analyze it by LC-MS. The sample concentrations at 3~5 points are subjected to fitting and reticle for quantification.

[3] = biological target: T1, EGFR (Homo sapiens, UniProt P00533); test: Kinase inhibition, Mobility Shift Assay/IMAP, EGFR; assay type: biochemical
T1 construct: purchased Carna 08-115
Summary of the method: as §1

[4] = tested on: melanin; test: Binding capacity of compounds to melanin; assay type: in vitro ADME, cuttlefish (Sepia officinalis); conditions: cuttlefish (Sepia officinalis), melanin suspension (1 mg/mL); 1 mg/mL melanin in PBS pH 7.4, 2 μM compound, 2 h at 37° C.; read-out: Fu % (percentage of free drug)
Description: Pigmented eye tissues contain melanin in intracellular melanosomes. Drugs bind to melanin to varying degrees, ranging from non-binding to extensive binding. Therefore, melanin binding is an important feature that affects drug delivery and biodistribution in the eye. The binding capacity of the compound to the melanin must be considered in the development of ophthalmic drugs.
Melanin was derived from the melanin of cuttlefish (Sepia officinalis) and was commercially available from Sigma Aldrich (St Louis, MO).
First, prepare 1 mg/mL melanin suspension with PBS (pH 7.4). As a washing step for the matrix, centrifuge the suspended particles for 5 min at 3000 rpm. Resuspend the resulting particles in a fresh PBS buffer, heat to 37° C. over continuous shaking and incubate it for 1 h. Accurately pipette 2 μL of the test stock solution (0.1 mM) into 98 μL of melanin suspension (1 mg/mL) to achieve a final incubation concentration of 2 μM. Similarly, accurately pipette 2 μL of the stock solution (0.1 mM) to 98 μL of PBS buffer (containing 0.1% BSA) as a blank control sample. Incubate the samples in a shaker (80-90 rpm) for 2 h at 37° C. Then, centrifuge the samples at room temperature. Pipette 50 μL of the supernatant and add 50 μL of precipitant (containing an internal standard). After protein precipitation of all the above samples, centrifuge the samples to collect the supernatants, dilute the supernatants with water (if necessary) and inject them for analysis. At the same time, measure the positive controls, including the high-binding compounds Sunitinib and chloroquine and the low-binding compound celecoxib. Establish an LC-MS/MS method for determining compound concentrations, and calibrate the peak area ratio of analyte/internal standard (Analyte/AIS) in the measured sample by the dilution factor to take it as an alternative concentration for the sample for data processing. The binding rate (Fb) of a compound in melanin was calculated as: […]
Ctest was the concentration of the compound in the melanin-incubated sample or the peak area ratio of the test compound to the internal standard. Ccontrol was the concentration of the compound in the blank control sample or the peak area ratio of the test compound to the internal standard. […]

[5] = biological target: T2, VEGFR1 (Homo sapiens, UniProt P17948); test: Kinase inhibition, Mobility Shift Assay/IMAP, VEGFR1; assay type: biochemical
T2 construct: purchased Invitrogen PR6731B
Description: (§2) This assay directly monitored the ability of compounds to inhibit kinase phosphorylation by measuring non-phosphorylated and phosphorylated substrates in kinase reactions by using Mobility Shift Assays/IMAP™ analysis.
(§3) Read the conversion ratio data on CaliperEZ Reader II. Convert conversion rates into inhibition ratio data.
(§4) “Min” indicates the readout of the control well without the addition of enzymes; and “Max” indicates the readout of the control well with the addition of DMSO Fit IC50 values with XL Fit excel add-in version […].
(§5) X indicates the log value of compound concentration, and Y indicates the inhibition ratio (% inhibition).

[6] = biological target: T3, VEGFR3 (Homo sapiens, UniProt P35916); test: Kinase inhibition, Mobility Shift Assay/IMAP, VEGFR3; assay type: biochemical
T3 construct: purchased Invitrogen PV4129
Description: as §2, §3, §4, §5

[7] = biological target: T4, TIE2 (Homo sapiens, UniProt Q02763); test: Kinase inhibition, Mobility Shift Assay/IMAP, TIE2; assay type: biochemical
T4 construct: purchased BPS 40270
Description: as §2, §3, §4, §5

T3 sequence (P35916 25-1363): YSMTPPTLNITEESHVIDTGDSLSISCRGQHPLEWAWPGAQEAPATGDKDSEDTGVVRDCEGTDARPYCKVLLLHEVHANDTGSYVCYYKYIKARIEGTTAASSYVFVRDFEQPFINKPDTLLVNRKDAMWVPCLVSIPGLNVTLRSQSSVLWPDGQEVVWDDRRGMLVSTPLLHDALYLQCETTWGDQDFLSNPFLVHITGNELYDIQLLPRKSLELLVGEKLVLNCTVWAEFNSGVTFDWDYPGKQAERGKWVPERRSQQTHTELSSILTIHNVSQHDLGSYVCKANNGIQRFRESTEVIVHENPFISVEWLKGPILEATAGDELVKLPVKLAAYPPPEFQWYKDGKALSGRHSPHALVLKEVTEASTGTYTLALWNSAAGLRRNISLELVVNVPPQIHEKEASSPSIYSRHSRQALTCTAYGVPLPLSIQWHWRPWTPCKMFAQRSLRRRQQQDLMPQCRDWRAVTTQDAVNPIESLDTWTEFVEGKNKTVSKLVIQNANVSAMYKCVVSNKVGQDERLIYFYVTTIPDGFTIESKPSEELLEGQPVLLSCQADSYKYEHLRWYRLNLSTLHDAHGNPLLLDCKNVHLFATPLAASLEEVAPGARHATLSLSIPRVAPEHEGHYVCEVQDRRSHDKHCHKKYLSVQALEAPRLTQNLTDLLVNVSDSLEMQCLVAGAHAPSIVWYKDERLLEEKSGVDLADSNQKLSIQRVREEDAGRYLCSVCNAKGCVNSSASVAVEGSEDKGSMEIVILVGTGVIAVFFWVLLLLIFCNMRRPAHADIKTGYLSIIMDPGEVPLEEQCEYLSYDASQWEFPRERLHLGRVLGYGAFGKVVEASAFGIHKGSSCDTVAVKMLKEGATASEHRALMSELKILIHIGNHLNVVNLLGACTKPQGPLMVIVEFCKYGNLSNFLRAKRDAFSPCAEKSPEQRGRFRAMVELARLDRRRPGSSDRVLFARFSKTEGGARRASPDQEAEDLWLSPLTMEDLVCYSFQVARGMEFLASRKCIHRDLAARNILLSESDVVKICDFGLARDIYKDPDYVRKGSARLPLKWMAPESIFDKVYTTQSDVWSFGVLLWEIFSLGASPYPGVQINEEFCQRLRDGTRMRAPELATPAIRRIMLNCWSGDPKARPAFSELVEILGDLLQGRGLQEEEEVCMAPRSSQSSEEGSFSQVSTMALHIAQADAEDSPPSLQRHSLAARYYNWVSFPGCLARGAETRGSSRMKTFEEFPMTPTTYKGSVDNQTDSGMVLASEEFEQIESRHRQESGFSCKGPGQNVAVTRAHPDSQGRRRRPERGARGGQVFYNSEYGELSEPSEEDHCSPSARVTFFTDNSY
T4 sequence (Q02763 23-1124): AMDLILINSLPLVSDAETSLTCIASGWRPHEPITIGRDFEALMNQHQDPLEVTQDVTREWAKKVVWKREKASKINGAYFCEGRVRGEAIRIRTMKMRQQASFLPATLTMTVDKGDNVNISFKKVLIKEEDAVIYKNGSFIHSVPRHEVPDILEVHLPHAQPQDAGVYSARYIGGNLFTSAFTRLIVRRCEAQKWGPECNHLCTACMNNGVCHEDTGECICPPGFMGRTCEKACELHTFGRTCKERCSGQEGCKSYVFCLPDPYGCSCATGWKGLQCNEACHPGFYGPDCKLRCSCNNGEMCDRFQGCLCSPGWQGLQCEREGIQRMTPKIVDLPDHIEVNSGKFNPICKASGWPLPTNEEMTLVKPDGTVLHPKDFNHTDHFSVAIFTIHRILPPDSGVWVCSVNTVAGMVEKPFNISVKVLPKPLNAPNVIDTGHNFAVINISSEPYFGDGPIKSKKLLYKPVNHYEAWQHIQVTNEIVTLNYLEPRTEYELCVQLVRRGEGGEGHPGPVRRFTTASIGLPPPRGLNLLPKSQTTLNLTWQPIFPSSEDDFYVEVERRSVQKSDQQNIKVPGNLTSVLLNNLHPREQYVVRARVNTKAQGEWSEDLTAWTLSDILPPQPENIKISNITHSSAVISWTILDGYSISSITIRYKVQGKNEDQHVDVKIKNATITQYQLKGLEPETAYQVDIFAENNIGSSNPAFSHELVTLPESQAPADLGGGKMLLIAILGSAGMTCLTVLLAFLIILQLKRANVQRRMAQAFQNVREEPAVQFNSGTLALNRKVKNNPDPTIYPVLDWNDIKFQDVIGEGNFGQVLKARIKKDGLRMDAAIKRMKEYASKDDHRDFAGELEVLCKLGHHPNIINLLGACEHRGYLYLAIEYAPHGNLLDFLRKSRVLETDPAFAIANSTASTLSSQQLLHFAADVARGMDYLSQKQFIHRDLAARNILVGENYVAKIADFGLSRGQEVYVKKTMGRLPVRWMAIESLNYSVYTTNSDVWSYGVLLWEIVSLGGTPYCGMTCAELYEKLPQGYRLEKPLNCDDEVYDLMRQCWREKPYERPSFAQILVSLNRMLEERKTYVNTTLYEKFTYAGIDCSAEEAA
T1 sequence (P00533 669-1210 limits assumed): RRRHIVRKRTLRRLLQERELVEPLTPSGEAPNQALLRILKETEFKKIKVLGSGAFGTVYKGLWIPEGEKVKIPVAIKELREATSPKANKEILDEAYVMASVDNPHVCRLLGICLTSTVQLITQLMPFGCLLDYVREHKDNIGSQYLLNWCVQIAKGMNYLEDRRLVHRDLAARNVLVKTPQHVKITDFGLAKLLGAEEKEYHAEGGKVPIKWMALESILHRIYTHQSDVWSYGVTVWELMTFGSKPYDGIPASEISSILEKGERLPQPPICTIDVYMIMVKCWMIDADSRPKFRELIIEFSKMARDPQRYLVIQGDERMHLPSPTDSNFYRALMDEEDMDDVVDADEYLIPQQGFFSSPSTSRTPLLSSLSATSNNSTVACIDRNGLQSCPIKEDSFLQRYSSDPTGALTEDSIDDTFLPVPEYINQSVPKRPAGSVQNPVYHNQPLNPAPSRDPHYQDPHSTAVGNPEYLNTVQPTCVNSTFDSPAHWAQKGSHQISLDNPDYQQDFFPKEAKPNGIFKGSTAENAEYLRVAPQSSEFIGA
Chain of VEGFR2 (P35968 790-1356 limits assumed): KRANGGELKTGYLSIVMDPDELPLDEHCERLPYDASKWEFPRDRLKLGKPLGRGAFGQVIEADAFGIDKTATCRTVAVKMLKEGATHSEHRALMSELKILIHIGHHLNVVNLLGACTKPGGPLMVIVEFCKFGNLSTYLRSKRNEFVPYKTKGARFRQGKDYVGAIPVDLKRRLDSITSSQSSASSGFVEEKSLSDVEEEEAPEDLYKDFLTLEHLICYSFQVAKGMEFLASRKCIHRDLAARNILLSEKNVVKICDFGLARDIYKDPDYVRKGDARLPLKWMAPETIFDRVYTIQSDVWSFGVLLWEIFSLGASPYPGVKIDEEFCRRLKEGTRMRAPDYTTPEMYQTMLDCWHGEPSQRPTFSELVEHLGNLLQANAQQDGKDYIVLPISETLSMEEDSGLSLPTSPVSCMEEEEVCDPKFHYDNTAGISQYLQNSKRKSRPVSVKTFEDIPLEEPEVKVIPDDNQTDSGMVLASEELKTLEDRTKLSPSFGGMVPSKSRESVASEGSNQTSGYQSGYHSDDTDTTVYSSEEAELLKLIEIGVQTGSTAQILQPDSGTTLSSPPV
T2 sequence (P17948 27-1338): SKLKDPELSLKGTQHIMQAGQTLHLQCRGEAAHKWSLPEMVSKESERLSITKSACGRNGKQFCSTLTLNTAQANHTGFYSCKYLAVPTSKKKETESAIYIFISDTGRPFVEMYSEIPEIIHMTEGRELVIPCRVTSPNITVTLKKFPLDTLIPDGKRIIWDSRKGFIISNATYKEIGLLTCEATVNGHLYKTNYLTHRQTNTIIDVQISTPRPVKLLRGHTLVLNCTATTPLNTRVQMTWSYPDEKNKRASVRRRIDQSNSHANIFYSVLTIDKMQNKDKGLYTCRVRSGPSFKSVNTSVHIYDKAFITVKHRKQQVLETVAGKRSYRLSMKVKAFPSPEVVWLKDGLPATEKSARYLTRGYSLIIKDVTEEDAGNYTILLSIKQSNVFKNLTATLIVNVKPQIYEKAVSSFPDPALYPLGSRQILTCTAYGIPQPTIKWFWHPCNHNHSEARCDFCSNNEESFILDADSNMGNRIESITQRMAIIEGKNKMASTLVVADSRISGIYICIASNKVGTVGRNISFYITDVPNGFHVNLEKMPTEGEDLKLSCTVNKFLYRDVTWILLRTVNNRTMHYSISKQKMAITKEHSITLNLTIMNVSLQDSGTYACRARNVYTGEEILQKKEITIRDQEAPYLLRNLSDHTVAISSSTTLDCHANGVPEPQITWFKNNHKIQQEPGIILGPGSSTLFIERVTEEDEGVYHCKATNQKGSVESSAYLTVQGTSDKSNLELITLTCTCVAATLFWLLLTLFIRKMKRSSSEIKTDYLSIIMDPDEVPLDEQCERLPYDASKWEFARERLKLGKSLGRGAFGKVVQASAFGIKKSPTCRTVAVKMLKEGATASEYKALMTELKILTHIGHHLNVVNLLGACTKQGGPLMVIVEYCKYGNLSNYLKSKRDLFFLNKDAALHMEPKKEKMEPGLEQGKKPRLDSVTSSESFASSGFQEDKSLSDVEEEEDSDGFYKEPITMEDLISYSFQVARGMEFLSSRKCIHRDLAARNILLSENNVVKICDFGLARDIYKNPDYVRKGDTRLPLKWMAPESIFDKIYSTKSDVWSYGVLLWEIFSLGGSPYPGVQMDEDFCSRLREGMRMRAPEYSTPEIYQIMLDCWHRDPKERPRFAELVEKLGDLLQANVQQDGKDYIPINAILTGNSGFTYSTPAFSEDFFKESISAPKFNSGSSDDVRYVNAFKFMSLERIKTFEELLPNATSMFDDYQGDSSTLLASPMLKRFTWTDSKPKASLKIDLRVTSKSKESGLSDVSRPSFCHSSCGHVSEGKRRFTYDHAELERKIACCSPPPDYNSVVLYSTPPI

SMILES	IC50 [1]	solubility at 8 h [2]	IC50 [3]	fraction unbound at 2 h, 2 μM [4]	IC50 [5]	IC50 [6]	IC50 [7]
COc1cc(COc2nsc(NC(=O)NCCCCN3CCCC3)c2C(N)=O)cc(OC)c1 [Compound T006, 3-((3,5-dimethoxybenzyl)oxy)-5-(3-(4-(pyrrolidin-1-yl)butyl)ureido)isothiazole-4-carboxamide]	47.4 nM	1170 µg/mL (≈ 2450 µM)	35 µM				
NC(=O)c1c(OCc2ccc3ccoc3c2)nsc1NC(=O)NCCCCN1CCCC1 [Compound T054, 3-(benzofuran-6-ylmethoxy)-5-(3-(4-(pyrrolidin-1-yl)butyl)ureido)isothiazole-4-carboxamide]	17.7 nM				34.3 nM	38.8 nM	157 nM
NC(=O)c1c(OCc2ccc3c(c2F)OCC3)nsc1NC(=O)NCCCCN1CCCC1 [Compound T074, 3-((7-fluoro-2,3-dihydrobenzofuran-6-yl)methoxy)-5-(3-(4-(pyrrolidin-1-yl)butyl)ureido)isothiazole-4-carboxamide]	26.5 nM	133 µg/mL (≈ 278 µM)		0.0462			
CN1CCC(CCNC(=O)Nc2snc(OCc3ccc4c(c3F)OCC4)c2C(N)=O)CC1 [Compound T075, 3-((7-fluoro-2,3-dihydrobenzofuran-6-yl)methoxy)-5-(3-(2-(1-methylpiperidin-4-yl)ethyl)ureido)isothiazole-4-carboxamide]	23 nM		24.3 µM	0.0391	44 nM	48.8 nM	
CCN1CCC(CCNC(=O)Nc2snc(OCc3ccc4c(c3)OCC4)c2C(N)=O)CC1 [Compound T076, 3-(2,3-dihydrobenzofuran-6-ylmethoxy)-5-[2-(1-ethyl-4-piperidyl)ethylcarbamoylamino]isothiazole-4-carboxamide]	12.6 nM		43.6 µM	0.0311	26.7 nM	23.8 nM	
CN1CCN(CCCNC(=O)Nc2snc(OCc3ccc4c(c3)OCC4)c2C(N)=O)CC1 [Compound T077, 3-(2,3-dihydrobenzofuran-6-ylmethoxy)-5-[3-(4-methylpiperazin-1-yl)propylcarbamoylamino]isothiazole-4-carboxamide]	7.01 nM		52 µM	0.0385	33 nM	44 nM	
NC(=O)c1c(OCc2cc3c(cc2F)CCO3)nsc1NC(=O)NCCN1CCCCC1 [Compound T082, 3-[(5-fluoro-2,3-dihydrobenzofuran-6-yl)methoxy]-5-[2-(1-piperidyl)ethylcarbamoylamino]isothiazole-4-carboxamide]	24 nM		15.5 µM	0.0757	27.8 nM	48.5 nM	203 nM
NC(=O)c1c(OCc2ccc3c(c2)OCC3)nsc1NC(=O)NCCC1CCN(C2CC2)CC1 [Compound T083, 5-[2-(1-cyclopropyl-4-piperidyl)ethylcarbamoylamino]-3-(2,3-dihydrobenzofuran-6-ylmethoxy)isothiazole-4-carboxamide]	12.7 nM		18.1 µM	0.0749	25.6 nM	22.3 nM	164 nM
NC(=O)c1c(OCc2ccc3c(c2)OCC3)nsc1NC(=O)NCCC1CCN(CCF)CC1 [Compound T084, 3-(2,3-dihydrobenzofuran-6-ylmethoxy)-5-[2-[1-(2-fluoroethyl)-4-piperidyl]ethylcarbamoylamino]isothiazole-4-carboxamide]	14.1 nM		15.8 µM		30.1 nM	37.1 nM	221 nM
NC(=O)c1c(OCc2cc(F)cc(C(=O)NC3CC3)c2)nsc1NC(=O)NCCCCN1CCCC1 [Compound T085, 3-[[3-(cyclopropylcarbamoyl)-5-fluoro-phenyl]methoxy]-5-(4-pyrrolidin-1-ylbutylcarbamoylamino)isothiazole-4-carboxamide]	1.7 nM		> 60 µM	0.0612	4.95 nM	10.6 nM	4590 nM
NC(=O)c1c(OCc2cc(C(=O)NC3CC3)cc(F)c2F)nsc1NC(=O)NCCCCN1CCCC1 [Compound T133, 3-[[5-(cyclopropylcarbamoyl)-2,3-difluoro-phenyl]methoxy]-5-(4-pyrrolidin-1-ylbutylcarbamoylamino)isothiazole-4-carboxamide]	0.5 nM	757 µg/mL (≈ 1410 µM)	21.5 µM				

Other lines, results leading:

IC50 [1]	solubility at 8 h [2]	IC50 [3]	fraction unbound at 2 h, 2 μM [4]	IC50 [5]	IC50 [6]	IC50 [7]	SMILES
	1290 µg/mL (≈ 2570 µM)						Cn1nc(COc2nsc(NC(=O)NCCCCN3CCCC3)c2C(N)=O)cc1Br [Compound T022, 3-((5-bromo-1-methyl-1H-pyrazol-3-yl)methoxy)-5-(3-(4-(pyrrolidin-1-yl)butyl)ureido)isothiazole-4-carboxamide]
	478 µg/mL (≈ 953 µM)		0.0421				NC(=O)c1c(OCc2ccc(OC(F)F)c(F)c2)nsc1NC(=O)NCCCCN1CCCC1 [Compound T027, 3-((4-(difluoromethoxy)-3-fluorobenzyl)oxy)-5-(3-(4-(pyrrolidin-1-yl)butyl)ureido)isothiazole-4-carboxamide]
3.68 nM				6.08 nM	16.1 nM		NC(=O)c1c(OCc2c(F)cc(Br)cc2F)nsc1Nc1cnn(CCN2CCNCC2)c1 [Compound T050, 3-((4-bromo-2,6-difluorobenzyl)oxy)-5-((1-(2-(piperazin-1-yl)ethyl)-1H-pyrazol-4-yl)amino)isothiazole-4-carboxamide]
8.17 nM				42.1 nM	18.7 nM		CN(C)CCCn1ncc(Nc2snc(OCc3c(F)cc(Br)cc3F)c2C(N)=O)n1 [Compound T052, 3-((4-bromo-2,6-difluorobenzyl)oxy)-5-((2-(3-(dimethylamino)propyl)-2H-1,2,3-triazol-4-yl)amino)isothiazole-4-carboxamide]
		8.05 µM	0.0582	13.5 nM	26.1 nM	88 nM	NC(=O)c1c(OCc2cc3c(cc2F)CCO3)nsc1NC(=O)NCCCN1CC[C@@H](F)C1 [Compound T080, 3-[(5-fluoro-2,3-dihydrobenzofuran-6-yl)methoxy]-5-[3-[(3R)-3-fluoropyrrolidin-1-yl]propylcarbamoylamino]isothiazole-4-carboxamide]
16 nM		19.6 µM	0.0632	21.9 nM	23.9 nM		NC(=O)c1c(OCc2cc3c(cc2F)CCO3)nsc1NC(=O)NCCN1CC[C@@H](F)C1 [Compound T081, 3-[(5-fluoro-2,3-dihydrobenzofuran-6-yl)methoxy]-5-[2-[(3R)-3-fluoropyrrolidin-1-yl]ethylcarbamoylamino]isothiazole-4-carboxamide]
6.77 nM		15.1 µM	0.0235	13.5 nM	9.9 nM	135 nM	CN1CCC(CCNC(=O)Nc2snc(OCc3cc(F)c4c(c3)OCC4)c2C(N)=O)CC1 [Compound T089, 3-((4-fluoro-2,3-dihydrobenzofuran-6-yl)methoxy)-5-(3-(2-(1-methylpiperidin-4-yl)ethyl)ureido)isothiazole-4-carboxamide]
